# Experiments:
# [1] = test system: Dorsal root ganglia (DRG) neuronal cultures; assay type: cell-based, rats; conditions: rat, 24 h, 25 ng/mL
# Excerpt: A two-step photolithographic process was utilized to create the master mold. Silicon wafers (University Wafer, MA) were coated with SU-8 2002 (Microchem; MA), spun, and soft baked using parameters specified by the manufacturer to yield a resist thickness of 2.5 microns. An array of microchannels, each with dimensions: width=10 microns, length=500 microns, were defined by UV light exposure through a high resolution DPI transparency (Cad/Art, OR). The exposed substrate was once again baked, to enhance polymer cross-linking post exposure, and developed as stated in the resist technical sheet to fully define the microchannels. […]
# In order to identify the susceptibility of axons and cell bodies to paclitaxel, we added 25 ng/mL of paclitaxel to either axon or cell body chambers and continued to culture the DRGs for another 24 hours. Once images of the fluorescently labeled cells and axons were captured, we used ImageJ to calculate axon lengths and calculated percent change in axon length compared to 24 hours before taxol exposure.
# Studies on the neuroprotective effect of EPO were performed with concurrent administration of paclitaxel, which was applied to either the neuronal cell body or axonal side. […] Axon degeneration was defined as the change in axon length over the total axon length expressed as a percentage.
# [2] = test system: Primary hippocampal neurons; assay: Oxidative stress by H2O2 added selectively to the somal compartment of the microfluidic device; assay type: cell-based; conditions: added to somal compartment of one group of neuronal cell bodies (2 mM peroxide media); over the course of 24-72 h
Structure (SMILES),decrease in the length of axons [1],neuronal cell death and axonal degeneration [2]
"CC(=O)O[C@H]1C(=O)[C@@]2(C)[C@H]([C@H](OC(=O)c3ccccc3)[C@]3(O)C[C@H](OC(=O)[C@H](O)[C@@H](NC(=O)c4ccccc4)c4ccccc4)C(C)=C1C3(C)C)[C@]1(OC(C)=O)CO[C@@H]1C[C@@H]2O [paclitaxel, Paclitaxel, reference compound]",28.6 ± 11.2%,
OO [H2O2],,induction of neuronal cell death and accompanying axonal degeneration
